# Values of other authors as cited in patent US20120022114A1, “Low-dose, non-irritating nicotine nasal composition to reduce the desire to smoke” (Laboratorio Pablo Cassara S.R.L., priority 2009, published 2012).
# Details: when inhaled; on average
smiles,measurement,value
"CN1CCCC1c1cccnc1 (stereo not shown) [nicotine, Nicotine]",Time for the substance to reach the brain,about seven
